We go through 11 compounds from patent US20260183275A1, “SUBSTITUTED QUINOLONE COMPOUNDS USEFUL AS INHIBITORS OF TLR9” (Bristol-Myers Squibb Company, priority 2022, published 2026).

A value given as a limit tells only on which side of the number the result lay.

Common to all, as to assay type: cell-based
For one experiment, the target named is T1, human TLR8 (Homo sapiens, UniProt Q9NR97).
T1 construct: host or cells: HEK-Blue cells
T1 sequence (Q9NR97 27-1041): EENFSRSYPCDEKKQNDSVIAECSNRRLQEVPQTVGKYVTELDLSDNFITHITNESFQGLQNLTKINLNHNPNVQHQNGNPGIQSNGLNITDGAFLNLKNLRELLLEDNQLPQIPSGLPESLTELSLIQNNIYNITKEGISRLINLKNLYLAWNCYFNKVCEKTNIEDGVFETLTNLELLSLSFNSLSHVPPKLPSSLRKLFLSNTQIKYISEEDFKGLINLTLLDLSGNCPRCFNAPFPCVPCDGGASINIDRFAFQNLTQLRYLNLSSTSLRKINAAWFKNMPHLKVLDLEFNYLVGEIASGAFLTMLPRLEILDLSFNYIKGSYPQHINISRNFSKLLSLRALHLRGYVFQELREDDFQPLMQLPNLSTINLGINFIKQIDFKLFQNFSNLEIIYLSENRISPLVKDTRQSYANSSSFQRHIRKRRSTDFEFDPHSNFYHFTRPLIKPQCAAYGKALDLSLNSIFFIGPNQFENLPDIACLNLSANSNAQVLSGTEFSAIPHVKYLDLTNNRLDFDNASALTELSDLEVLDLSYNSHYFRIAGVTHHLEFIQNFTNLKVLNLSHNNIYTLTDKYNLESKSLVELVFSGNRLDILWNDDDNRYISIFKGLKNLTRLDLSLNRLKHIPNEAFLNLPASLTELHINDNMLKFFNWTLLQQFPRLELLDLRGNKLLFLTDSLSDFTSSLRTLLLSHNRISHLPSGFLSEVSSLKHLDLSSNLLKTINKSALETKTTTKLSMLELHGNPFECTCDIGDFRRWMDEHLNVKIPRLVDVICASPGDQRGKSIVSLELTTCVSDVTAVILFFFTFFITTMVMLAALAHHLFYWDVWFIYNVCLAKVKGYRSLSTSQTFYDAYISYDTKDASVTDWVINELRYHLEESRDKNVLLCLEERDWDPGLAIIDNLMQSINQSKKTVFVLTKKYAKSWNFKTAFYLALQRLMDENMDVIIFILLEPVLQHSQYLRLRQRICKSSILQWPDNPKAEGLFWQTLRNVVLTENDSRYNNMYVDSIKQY
The experiment can be described thus: TLR8 inhibition reporter assay (HEK-Blue cells, SEAP reporter). As to conditions: HEK-Blue cells overexpressing human TLR8; stimulated with R848 15.9 μM; SEAP read after 22 hour; dose range 0.05 nM-50 μM. How it is done: (§1) HEK-Blue™-cells (Invivogen) overexpressing human TLR7, TLR8 or TLR9 receptors were used for screening inhibitors of these receptors using an inducible SEAP (secreted embryonic alkaline phosphatase) reporter gene under the control of the IFN-β minimal promoter fused to five NF-κB and AP-1-binding sites. Briefly, cells are seeded into Greiner 384 well plates (15000 cells per well for TLR7, 20,000 for TLR8 and 25,000 for TLR9) and then treated with test compounds in DMSO to yield a final dose response concentration range of 0.05 nM-50 μM. After a 30 minute compound pre-treatment at room temperature, the cells are then stimulated with a TLR7 ligand (gardiquimod at a final concentration of 7.5 μM), TLR8 ligand (R848 at a final concentration of 15.9 μM) or TLR9 ligand (ODN2006 at a final concentration of 5 nM) to activate NF-κB and AP-1 which induce the production of SEAP. After a 22 hour incubation at 37° C., 5% CO2, SEAP levels are determined with the addition of HEK-Blue™ Detection reagent (Invivogen), a cell culture medium that allows for detection of SEAP, according to manufacturer's specifications. The percent inhibition is determined as the % reduction in the HEK-Blue signal present in wells treated with agonist plus DMSO alone compared to wells treated with a known inhibitor.
Background: A reporter such as luciferase makes a cellular process visible.

Another experiment concerns the target T2, human TLR7 (Homo sapiens, UniProt Q9NYK1).
T2 construct: host or cells: HEK-Blue cells
T2 sequence (Q9NYK1 27-1049): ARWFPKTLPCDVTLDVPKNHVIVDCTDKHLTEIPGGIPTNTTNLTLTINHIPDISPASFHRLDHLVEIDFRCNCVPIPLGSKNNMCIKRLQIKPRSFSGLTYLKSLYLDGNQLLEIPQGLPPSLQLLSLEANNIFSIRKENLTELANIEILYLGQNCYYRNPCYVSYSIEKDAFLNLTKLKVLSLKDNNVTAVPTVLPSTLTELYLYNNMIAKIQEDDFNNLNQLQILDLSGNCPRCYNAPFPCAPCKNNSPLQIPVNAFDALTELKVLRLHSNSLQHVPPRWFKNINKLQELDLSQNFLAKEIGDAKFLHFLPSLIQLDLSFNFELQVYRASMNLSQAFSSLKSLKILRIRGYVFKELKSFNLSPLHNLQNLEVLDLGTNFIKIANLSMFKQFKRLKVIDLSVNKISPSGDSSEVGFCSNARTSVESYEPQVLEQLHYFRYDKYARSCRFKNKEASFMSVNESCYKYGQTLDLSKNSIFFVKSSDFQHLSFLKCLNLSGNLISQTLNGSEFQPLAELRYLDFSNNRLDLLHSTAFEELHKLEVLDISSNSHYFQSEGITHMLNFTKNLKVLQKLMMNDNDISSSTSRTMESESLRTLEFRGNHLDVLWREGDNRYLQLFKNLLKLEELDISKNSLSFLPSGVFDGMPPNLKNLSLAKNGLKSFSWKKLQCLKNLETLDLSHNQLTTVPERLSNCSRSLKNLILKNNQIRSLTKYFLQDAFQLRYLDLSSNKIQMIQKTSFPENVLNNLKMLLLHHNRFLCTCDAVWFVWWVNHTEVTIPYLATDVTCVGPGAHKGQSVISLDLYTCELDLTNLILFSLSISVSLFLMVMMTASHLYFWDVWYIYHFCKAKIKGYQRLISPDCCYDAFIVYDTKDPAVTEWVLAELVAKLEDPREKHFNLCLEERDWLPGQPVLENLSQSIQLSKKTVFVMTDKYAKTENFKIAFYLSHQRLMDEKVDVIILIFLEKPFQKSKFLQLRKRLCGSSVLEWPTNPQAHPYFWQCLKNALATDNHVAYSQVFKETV
The experiment can be described thus: TLR7 inhibition reporter assay (HEK-Blue cells, SEAP reporter). As to conditions: HEK-Blue cells overexpressing human TLR7; stimulated with gardiquimod 7.5 μM; SEAP read after 22 hour; dose range 0.05 nM-50 μM. How it is done:
as §1

A further experiment concerns the target T3, human TLR9 (Homo sapiens, UniProt Q9NR96).
T3 construct: host or cells: HEK-Blue cells
T3 sequence (Q9NR96 26-1032): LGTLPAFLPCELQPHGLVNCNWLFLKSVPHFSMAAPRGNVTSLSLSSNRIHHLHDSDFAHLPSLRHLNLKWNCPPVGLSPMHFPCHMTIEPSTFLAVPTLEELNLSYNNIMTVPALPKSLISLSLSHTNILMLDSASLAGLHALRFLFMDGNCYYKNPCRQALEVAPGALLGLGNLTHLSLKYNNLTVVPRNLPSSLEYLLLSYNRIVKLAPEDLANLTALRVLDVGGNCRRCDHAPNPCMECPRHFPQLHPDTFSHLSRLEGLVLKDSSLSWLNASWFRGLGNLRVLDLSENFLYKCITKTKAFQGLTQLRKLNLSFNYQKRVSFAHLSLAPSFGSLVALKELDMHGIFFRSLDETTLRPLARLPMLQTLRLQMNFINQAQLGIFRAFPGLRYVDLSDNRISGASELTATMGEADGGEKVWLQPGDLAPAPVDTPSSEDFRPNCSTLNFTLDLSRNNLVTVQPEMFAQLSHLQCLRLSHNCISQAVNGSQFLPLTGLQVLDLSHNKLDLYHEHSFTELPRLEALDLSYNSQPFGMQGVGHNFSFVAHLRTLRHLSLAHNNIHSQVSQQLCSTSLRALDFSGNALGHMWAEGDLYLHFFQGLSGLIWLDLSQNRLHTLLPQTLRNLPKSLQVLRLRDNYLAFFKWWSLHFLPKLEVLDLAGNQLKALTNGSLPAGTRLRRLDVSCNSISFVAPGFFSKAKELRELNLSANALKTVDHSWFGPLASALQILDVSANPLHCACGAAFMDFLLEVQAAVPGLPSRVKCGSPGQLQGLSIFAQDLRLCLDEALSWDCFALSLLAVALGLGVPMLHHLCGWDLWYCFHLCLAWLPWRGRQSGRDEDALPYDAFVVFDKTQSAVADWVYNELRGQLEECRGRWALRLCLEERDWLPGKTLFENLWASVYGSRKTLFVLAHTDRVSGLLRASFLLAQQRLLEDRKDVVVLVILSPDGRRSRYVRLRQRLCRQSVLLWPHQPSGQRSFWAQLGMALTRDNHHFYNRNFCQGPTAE
The experiment can be described thus: TLR9 inhibition reporter assay (HEK-Blue cells, SEAP reporter). As to conditions: HEK-Blue cells overexpressing human TLR9; stimulated with ODN2006 5 nM; SEAP read after 22 hour; dose range 0.05 nM-50 μM. How it is done:
as §1

Consider `CNC(=O)Nc1ccc(-c2cc3cc(-c4ccc(N5CCN(C(C)C)CC5)cc4)ccc3[nH]c2=O)cc1` [Example 49, 3-methyl-1-[4-(2-oxo-6-{4-[4-(propan-2-yl)piperazin-1-yl]phenyl}-1,2-dihydroquinolin-3-yl)phenyl]urea], for which the figures for the IC50 against human TLR8, on human TLR7 and at human TLR9 were at least 50000 nM, 5420 nM and 239 nM, respectively.

Consider `NS(=O)(=O)c1ccc(-c2cc3cc(-c4ccc(C5CCN(C6COC6)CC5)cc4)ccc3[nH]c2=O)cc1` [Example 92, 4-(6-{4-[1-(oxetan-3-yl)piperidin-4-yl]phenyl}-2-oxo-1,2-dihydroquinolin-3-yl)benzene-1-sulfonamide], for which the IC50 (in general, the midpoint of a concentration-inhibition curve) on human TLR8 is 11400 nM; at human TLR7 it was at least 50000 nM; on human TLR9, 560 nM.

`CC(C)N1CCN(c2ccc(-c3ccc4[nH]c(=O)c(-c5cc(F)ccc5F)cc4c3)cc2)CC1` [Example 20, 3-(2,5-difluorophenyl)-6-{4-[4-(propan-2-vi)piperazin-1-yl]phenyl}-1,2-dihydroquinolin-2-one]: the figures for the IC50 against human TLR8, on human TLR7 and against human TLR9 were 5410 nM, 1560 nM and 203 nM, respectively.

On to `CCc1c(-c2ccc(OC)c(OC)c2)c(=O)[nH]c2ccc(-c3ccc(N4CCN(C(C)C)CC4)cc3)cc12` [Example 95, 3-(3,4-dimethoxyphenyl)-4-ethyl-6-{4-[4-(propan-2-yl)piperazin-1-yl]phenyl}-1,2-dihydroquinolin-2-one], for which the values for the IC50 against human TLR8, at human TLR7 and on human TLR9 were 731 nM, 5890 nM and 691 nM, respectively.

With `CC(C)N1CCN(c2ccc(-c3ccc4[nH]c(=O)c(-c5ccc(C#N)cc5)cc4c3)cc2)CC1` [Example 12, 4-(2-oxo-6-{4-[4-(propan-2-yl)piperazin-1-yl]phenyl}-1,2-dihydroquinolin-3-yl)benzonitrile], the IC50 was found to be 7560 nM on human TLR8, 3000 nM against human TLR7 and 121 nM on human TLR9.

Take `CC(C)N1CCN(c2ccc(-c3ccc4[nH]c(=O)c(-c5cn(C)c6ccccc56)cc4c3)cc2)CC1` [Example 48, 3-(1-methyl-1H-indol-3-yl)-6-(4-[4-(propan-2-yl)piperazin-1-yl]phenyl}-1,2-dihydroquinolin-2-one]: the IC50 came out at 6880 nM at human TLR8, 2150 nM against human TLR7 and 1160 nM on human TLR9.

With `CC(C)N1CCC(c2ccc(-c3ccc4c(c3)cc(-c3ccccc3)c(=O)n4C)cc2)CC1` [Example 73, 1-methyl-3-phenyl-6-{4-[1-(propan-2-yl)piperidin-4-yl]phenyl}-1,2-dihydroquinolin-2-one], the IC50 turned out to be 763 nM against human TLR8, 1480 nM on human TLR7 and 219 nM at human TLR9.

Regarding `CN1CCC(c2ccc(-c3ccc4[nH]c(=O)c(-c5ccc(NS(C)(=O)=O)cc5)cc4c3)cc2)CC1` [Example 70, N-(4-{6-[4-(1-methylpiperidin-4-yl)phenyl]-2-oxo-1,2-dihydroquinolin-3-yl}phenyl)methanesulfonamide], the values for the IC50 at human TLR8, against human TLR7 and at human TLR9 were at least 50000 nM, 204 nM and 78 nM, respectively.

On to `CC(C)N1CCN(c2ccc(-c3ccc4c(c3)cc(-c3ccccc3)c(=O)n4C)cc2)CC1` [Example 58, 1-methyl-3-phenyl-6-{4-[4-(propan-2-yl)piperazin-1-yl]phenyl}-1,2-dihydroquinolin-2-one], for which the IC50 was determined as 1390 nM against human TLR8, 32600 nM on human TLR7 and 538 nM against human TLR9.

Consider `CC(C)N1CCN(c2ccc(-c3ccc4[nH]c(=O)c(-c5ccccn5)cc4c3)cc2)CC1` [Example 6, 6-{4-[4-(propan-2-yl)piperazin-1-yl]phenyl}-3-(pyridin-2-yl)-1,2-dihydroquinolin-2-one], for which the values for the IC50 against human TLR8, on human TLR7 and against human TLR9 were at least 50000 nM, 3830 nM and 79 nM, respectively.

Consider `CN1CCC(c2ccc(-c3ccc4[nH]c(=O)c(-c5ccc(S(C)(=O)=O)cc5)cc4c3)cc2)CC1` [Example 76, 3-(4-methanesulfonylphenyl)-6-[4-(1-methylpiperidin-4-yl)phenyl]-1,2-dihydroquinolin-2-one], for which the IC50 against human TLR8 amounted to 9850 nM; against human TLR7, 2030 nM; against human TLR9, 261 nM.
